Source: patent US20250057912A1, “Compounds” (priority 2021, published 2025)

Experiments:
[1] = biological target: T1, α4β7 RPMI8866/MAdCAM-1 adhesion (Homo sapiens, UniProt P13612+P26010); test: Integrin α4β7-MAdCAM cell adhesion assay, RPMI8866 cells (Example 7); assay type: cell-based
T1 construct: CFSE-labelled RPMI 8866 cells were added to the plate coated with rhMAdCAM-1; host or cells: RPMI 8866
T1 sequence (P13612 34-1032): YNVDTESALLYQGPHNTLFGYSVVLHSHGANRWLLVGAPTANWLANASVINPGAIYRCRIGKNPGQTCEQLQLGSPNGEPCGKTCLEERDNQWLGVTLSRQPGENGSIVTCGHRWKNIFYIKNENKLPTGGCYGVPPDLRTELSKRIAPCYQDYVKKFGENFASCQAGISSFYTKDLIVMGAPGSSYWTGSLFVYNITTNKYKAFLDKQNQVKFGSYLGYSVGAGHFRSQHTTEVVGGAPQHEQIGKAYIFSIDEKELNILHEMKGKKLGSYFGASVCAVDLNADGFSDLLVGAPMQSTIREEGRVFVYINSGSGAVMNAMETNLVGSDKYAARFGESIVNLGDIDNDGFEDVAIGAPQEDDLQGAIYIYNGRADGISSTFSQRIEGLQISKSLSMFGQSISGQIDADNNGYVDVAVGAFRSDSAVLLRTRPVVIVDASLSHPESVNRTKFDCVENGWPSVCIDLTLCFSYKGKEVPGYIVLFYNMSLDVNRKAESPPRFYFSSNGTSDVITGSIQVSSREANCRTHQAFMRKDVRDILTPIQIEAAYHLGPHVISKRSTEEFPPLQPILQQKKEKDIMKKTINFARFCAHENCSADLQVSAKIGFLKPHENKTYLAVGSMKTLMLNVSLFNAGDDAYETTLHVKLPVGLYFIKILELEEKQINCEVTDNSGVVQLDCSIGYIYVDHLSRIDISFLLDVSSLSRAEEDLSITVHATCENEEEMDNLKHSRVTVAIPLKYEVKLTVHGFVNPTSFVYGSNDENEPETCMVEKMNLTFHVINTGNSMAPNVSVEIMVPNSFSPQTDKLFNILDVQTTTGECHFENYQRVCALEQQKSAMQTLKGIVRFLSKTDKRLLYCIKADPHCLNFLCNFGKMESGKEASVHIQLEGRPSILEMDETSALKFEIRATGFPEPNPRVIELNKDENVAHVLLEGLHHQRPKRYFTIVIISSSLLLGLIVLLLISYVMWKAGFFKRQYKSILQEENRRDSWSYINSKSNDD
T1 sequence (P26010 20-798): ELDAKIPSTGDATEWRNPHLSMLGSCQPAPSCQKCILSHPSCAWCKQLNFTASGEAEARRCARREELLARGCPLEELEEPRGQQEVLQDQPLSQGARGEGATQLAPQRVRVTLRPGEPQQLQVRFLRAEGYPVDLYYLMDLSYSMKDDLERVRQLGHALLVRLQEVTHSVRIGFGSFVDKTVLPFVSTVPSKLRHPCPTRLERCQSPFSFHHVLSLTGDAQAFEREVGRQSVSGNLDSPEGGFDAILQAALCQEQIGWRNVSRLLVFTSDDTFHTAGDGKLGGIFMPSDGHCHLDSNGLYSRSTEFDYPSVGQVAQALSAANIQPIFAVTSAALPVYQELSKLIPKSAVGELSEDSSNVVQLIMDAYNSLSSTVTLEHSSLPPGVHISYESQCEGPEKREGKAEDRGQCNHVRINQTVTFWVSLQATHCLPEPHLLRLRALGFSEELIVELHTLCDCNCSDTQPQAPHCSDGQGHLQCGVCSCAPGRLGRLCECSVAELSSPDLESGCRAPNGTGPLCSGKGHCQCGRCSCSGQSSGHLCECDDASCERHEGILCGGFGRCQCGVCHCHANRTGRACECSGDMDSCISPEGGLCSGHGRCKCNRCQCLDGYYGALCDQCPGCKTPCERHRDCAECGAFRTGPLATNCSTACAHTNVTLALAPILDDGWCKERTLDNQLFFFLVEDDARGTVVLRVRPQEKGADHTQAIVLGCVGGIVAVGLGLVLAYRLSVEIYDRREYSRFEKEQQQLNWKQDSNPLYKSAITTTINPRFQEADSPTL
Source text: The cells were pelleted by centrifugation and resuspended in fresh pre-warmed complete culture medium and the cells were counted. […]

[2] = Pharmacokinetic characterisation in Beagle dogs, single s.c. injection, dose range (Example 6); assay type: in vivo; settings: male, plasma, dog, SC
Source text: The dosing vehicle was PBS buffer, pH 7.

[3] = biological target: T2, α4β1 RAMOS/VCAM-1 adhesion (Homo sapiens, UniProt P05556+P13612); test: Integrin α4β1-VCAM-1 cell adhesion assay, RAMOS cells (Example 7); assay type: cell-based; settings: rhVCAM-1 coated plate, DMEM binding buffer
T2 construct: host or cells: RAMOS
Procedure: The human B lymphocyte cell line RAMOS was obtained from the Zealand Pharma culture collection.
Compound 1 and Comparative compounds 1 and 2 were reconstituted in DMSO to a concentration of 10 mM.
CFSE-labelled RPMI 8866 cells were added to the plate coated with rhMAdCAM-1 and CFSE-labelled RAMOS cells were added to the plate coated with rhVCAM-1.
After incubation, unbound cells were washed away. The cell plates were emptied by inverting and residues of liquid were removed by blotting on paper towel.

T2 sequence (P05556 21-798, one chain of several): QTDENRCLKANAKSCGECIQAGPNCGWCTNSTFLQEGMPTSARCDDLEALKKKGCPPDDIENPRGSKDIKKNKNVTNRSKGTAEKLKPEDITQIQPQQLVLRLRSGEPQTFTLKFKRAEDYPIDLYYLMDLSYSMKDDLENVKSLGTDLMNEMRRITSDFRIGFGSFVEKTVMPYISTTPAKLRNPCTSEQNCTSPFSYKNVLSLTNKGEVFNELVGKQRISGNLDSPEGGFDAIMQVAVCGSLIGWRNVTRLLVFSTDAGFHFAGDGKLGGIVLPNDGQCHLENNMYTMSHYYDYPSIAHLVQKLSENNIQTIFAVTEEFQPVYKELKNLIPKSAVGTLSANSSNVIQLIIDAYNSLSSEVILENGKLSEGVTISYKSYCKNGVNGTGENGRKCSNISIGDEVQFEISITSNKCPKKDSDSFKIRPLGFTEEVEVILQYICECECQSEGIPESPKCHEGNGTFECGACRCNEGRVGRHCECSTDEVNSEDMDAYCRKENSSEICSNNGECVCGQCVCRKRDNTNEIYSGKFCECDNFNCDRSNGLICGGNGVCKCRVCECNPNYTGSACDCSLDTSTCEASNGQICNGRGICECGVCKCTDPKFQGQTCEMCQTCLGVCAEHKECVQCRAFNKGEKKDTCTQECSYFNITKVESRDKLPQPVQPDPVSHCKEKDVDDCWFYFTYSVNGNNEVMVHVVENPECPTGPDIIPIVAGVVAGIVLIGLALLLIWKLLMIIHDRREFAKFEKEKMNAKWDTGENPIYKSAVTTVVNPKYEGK

Structure (SMILES): CC[C@H](C)[C@@H]1NC(=O)[C@H](CC(=O)O)NC(=O)[C@H](CC(C)C)NC(=O)c2ccc(-c3ccc(N4CCN(C(=O)c5ccccc5-c5ccccc5C(=O)N5CCN(c6ccc(-c7ccc8cc7CNC(=O)[C@@H]7CCCN7[C@H](C(=O)NC(C)(C)C)[C@H](C)NC(=O)[C@H]([C@@H](C)CC)NC(=O)[C@H](CC(=O)O)NC(=O)[C@H](CC(C)C)NC8=O)cc6)CC5)CC4)cc3)c(c2)CNC(=O)[C@@H]2CCCN2[C@H](C(=O)NC(C)(C)C)[C@H](C)NC1=O [Compound 1]
- IC50 ([1]; RPMI 8866 cells, rhMAdCAM-1 coated plate, DMEM binding buffer): 7.2 nM
- Selectivity ratio ([1]; α4β1 RAMOS/VCAM-1 IC50 versus α4β7 RPMI8866/MAdCAM-1 IC50): 16.0
- AUC ([2]; 10 ug/kg): 2.46 µM·h
- AUC ([2]; 20 ug/kg): 5.68 µM·h
- AUC ([2]; 50 ug/kg): 11.6 µM·h
- AUC ([2]; 100 ug/kg): 58.6 µM·h
- AUC ([2]; 200 ug/kg): 72.5 µM·h
- AUC ([2]; 400 ug/kg): 158 µM·h
- IC50 [3]: 115 nM
